One data set relates to P. aeruginosa PAO1. Briefly: Fluorescence microscopy, penetration of bolalipid. It counts as cell-based, Pseudomonas aeruginosa. Particulars: 180 μM. As for the experimental part:
P. aeruginosa PAO1 was incubated with CM2 alone or in combination with tobramycin. A single colony of bacteria was collected from a Luria-Bertani (LB) agar plate and resuspended in 10 mL of LB broth overnight at 37°C, with shaking at 150 rpm. The following morning, a 2% (vol/vol) dilution was done in fresh LB broth, and the bacteria suspension was grown at 37°C with shaking at 150 rpm until it reached an OD600 of 0.3. The surface of microscopy SuperFrost glass slides (Thermo Fisher Scientific, Massachusetts, USA) was marked with a PAP pen, in order to design two square confined areas per glass slide, where the bacteria were deposited. One hundred microliters of bacterial suspension was transferred into sterile Eppendorf tubes and incubated with equal volumes of bolalipid suspension for 1 h. The bolalipid final concentration was 0.18 mM. The fluorescent Alexa Fluor 555 conjugate of wheat germ agglutinin (WGA) (Thermo Fisher Scientific) lectin membrane dye (10 μg/mL final concentration) was added to the suspension, and the bacteria were incubated for 45 min more. At the end of incubation, 100 μL was spotted in each half of the SuperFrost glass slides and incubated for 45 min more. Glass slides were then washed three times with phosphate-buffered saline (PBS) and left to dry for 5 min before addition of one drop of Fluoromount (Sigma-Aldrich, Germany) aqueous mounting medium. […]

Another data set relates to G. vaginalis KC1. Briefly: Anaerobic broth microdilution MIC (BHI, 5% horse serum). Format: cell-based, Gardnerella vaginalis. Conditions: Gardnerella vaginalis, read-out: MIC.
Data set [1] deals with Prevotella bivia NCTC 11156. Described as above. Conditions: NCTC11156, read-out: MIC. It counts as cell-based.
The test system of a further data set is G. vaginalis KC3. The description is as above. Format: cell-based, Gardnerella vaginalis. Conditions: Gardnerella vaginalis, read-out: MIC.
In data set [2] the test system is Pseudomonas aeruginosa RP73. Put plainly: In vitro pharmacodynamic (PD) assay. Particulars: P. aeruginosa RP73; combination 2:1 (wt/wt).
Experimental: In vitro PD assays were performed with Pseudomonas aeruginosa RP73 cultured in Roswell Park Memorial Institute 1640 medium (RPMI) supplemented with 5% Mueller-Hinton broth (MHB) ([35]). Bacteria were cultured overnight in 10 mL of RPMI–5% MHB at 37°C and diluted just prior to plate inoculation to an OD600 of 0.002. Stock solutions of colistin or tobramycin were prepared in sterile MilliQ water at a concentration of 200× MIC. Octa-bola was prepared in methanol at 2,000× MIC and diluted in water to 200× MIC. A dilution series was made in the top row of a polypropylene 96-well plate from 200× MIC to 0.2× MIC in a volume of 100 μL, to which 100 μL of the bacterial suspension was added to have a total of 1 × 10^6 log-phase CFU in 200 μL. The first time zero sample was taken <30 s after addition of bacteria to the plate, with further samples taken at appropriate intervals thereafter. […] Fifteen microliters was removed from each well, diluted 1:1,000 in phosphate-buffered saline, and plated onto RPMI–5% MH agar plates. The plates were incubated at 37°C overnight for CFU counting.
CFU data were log10 transformed, and the bacterial net growth rate was determined from the increase or decrease in CFU during the time of exposure to the antibiotics as the coefficient of a linear regression of log10 CFU as a function of time. The intercept of the regression was fixed by forcing the regression lines through the first CFU measurement (0 min) at a given antimicrobial concentration. The pharmacodynamic function according to Regoes et al. ([36]) describes the relationship between bacterial net growth rate (ψ) and the concentration of an antimicrobial (a): ψmax − ([ψmax − ψmin][a/zMIC])^κ/([a/zMIC]^κ − [ψmin/ψmax]). Fitting this function to the net bacterial growth rates in OriginPro 2020 (OriginLab Corporation, Northampton, MA) generates the parameters ψmin and ψmax (minimum and maximum growth rates, respectively), zMIC (the pharmacodynamic MIC), and κ (a measure of the cooperativity). […]
The nature of data set [3]: Maximum solubility in water. It counts as physicochemical. Conditions: ultrapure water, 40 °C, thermodynamic from solid. As for the experimental part: Stock solutions of bolalipids were prepared by dispersing the powder in ultrapure water, then stirring vigorously by vortexing, and sonicating in a 40°C bath sonicator for 20 min. The concentration of each stock solution corresponds to the highest solubility achieved in water for each bolalipid, using the method described above. DLS experiments were performed on a Malvern Zetasizer Nano (Malvern Instruments, Worcestershire, UK) in back-scattering mode at 20°C. There were three independent measurements of each sample and 12 runs for each measurement, with 10 s taken for each run. The attenuator index and measurement position were automatically adjusted. Fifty microliters of each sample was transferred into polystyrene semi-microcuvettes for determination of UV and visible wavelengths (Sarstedt).

The next data set concerns Candida auris TGD1912. Briefly: Fluorescence microscopy, accumulation of bolalipid. Format: cell-based. Particulars: 0.18 mM (approximately 54× the MIC), 30 min. The procedure: Candida auris cells were picked from a yeast extract-peptone-dextrose (YPD) agar plate and resuspended in 35 mL of sterile distilled water (dH2O). After resuspension, 150 μL of cells was inoculated in 100 mL of YPD broth overnight at 30°C with shaking at 130 rpm and grown to exponential phase (5 × 10^6 to 5 × 10^7 cells/mL). Cells (6 × 10^8) were washed in standard defined (SD) medium twice (pelleted at 1,500 × g for 5 min and resuspended in 10 mL SD medium [yeast nitrogen base without the amino acids D-glucose, methionine, adenine, histidine, tryptophan, uracil, leucine, and lysine]), followed by resuspension in 1 mL SD medium containing 0.18 mM Penta-bola, and incubated at 37°C for 30 min. After treatment with the Penta-bola, cells were pelleted and resuspended in Hanks’ balanced salt solution (HBSS) and 50 μg/mL CF594 concanavalin A (Biotium). After incubation at 37°C for 30 min, cells were washed once with HBSS and resuspended in 1 mL of HBSS. Polysine adhesion slides (Thermo Scientific) were prepared by spreading 20 μL of treated cells and allowing them to dry for 30 min before adding one drop of Fluoromount (Sigma-Aldrich, Germany) aqueous mounting medium. Fluorescence images were acquired using a Leica fluorescence microscope at ×100 magnification. […]

Consider `Nc1c2c([n+](CCCCCCCCCCCC[n+]3c4c(c(N)c5ccccc53)CCCC4)c3ccccc13)CCCC2` [12-bis-THA Cl2, 12,12′-(Dodecane-1,12-diyl)-bis-(9-amino-1,2,3,4-tetrahydroacridinium) chloride], for which the “bacterial integrity / accumulation of bolalipid” value with P. aeruginosa PAO1 is “the bacteria appeared intact and the bolalipid was concentrated within the cells”. Take `Cc1cc(N)c2ccccc2[n+]1CCCCCCCCCC[n+]1c(C)cc(N)c2ccccc21` [Dequalinium, dequalinium chloride, reference compound]: the MIC (in general, the smallest concentration in the dilution series that meets the test's criterion for growth inhibition) is 2 µg/mL in the data set on G. vaginalis KC1, 2 µg/mL in data set [1] and 2 to 4 µg/mL in the data set on G. vaginalis KC3.

`Nc1c2c([n+](CCCCCCCCCCCC[n+]3c4c(c(N)c5ccccc53)CCCCCC4)c3ccccc13)CCCCCC2` [Octa-bola]: the “bactericidal activity (minimum growth rate, ψmin)” value in data set [2] is “strongly bactericidal, albeit only at the highest concentration tested”. Also, in data set [3], the concentration in solution (solubility at 20 min) came to 360 µM. `Nc1c2c([n+](CCCCCCCCCCCC[n+]3c4c(c(N)c5ccccc53)CCC4)c3ccccc13)CCC2` [Penta-bola]: the “cell integrity / accumulation of bolalipid” value in the data set with Candida auris TGD1912 was “the cells remained intact”.

(Values after article PMC9942557, “Bolaamphiphile Analogues of 12-bis-THA Cl2 Are Potent Antimicrobial Therapeutics with Distinct Mechanisms of Action against Bacterial, Mycobacterial, and Fungal Pathogens” (mSphere, 2022).)
